According to publication PMC8963254, “Effects of Lysine N-ζ-Methylation in Ultrashort Tetrabasic Lipopeptides (UTBLPs) on the Potentiation of Rifampicin, Novobiocin, and Niclosamide in Gram-Negative Bacteria” (Antibiotics, 2022):
Like-named read-outs stand apart in the source and are kept apart here.

Legend:
E. cloacae 118564 [1] = test: microbe, parasite or virus in culture; assay type: cell-based, Enterobacter cloacae; conditions: 118564, 18 h
In short: (§1)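 MIC was determined by broth microdilution following CLSI guidelines. Serially varied compound concentrations were incubated with bacterial inoculum at 5 × 10^5 CFU/mL (final) for 18 h at 37 °C. Growth was scored as turbidity by absorbance at 590 nm.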

MRSE 61589 [2] = assay type: cell-based, Staphylococcus epidermidis
Experimental: (§2) The synergy of the UTBLPs with various antibiotics was assessed using checkerboard assay as previously described. Briefly, the combination of antibiotic and OMP at varying concentrations were incubated with bacterial inoculum (5 × 10^5 CFU/mL final concentration) at 37 °C for 18 h. Growth in the form of turbidity was confirmed using an EMax Plus microplate reader (Molecular Devices, Union City, CA, USA) at 590 nm. Fractional inhibitory concentration index (FICI) was used to evaluate the interaction between the antibiotic and the OMP. FICI is the sum of the FIC of the antibiotic and the FIC of the OMP. The FIC value is calculated by dividing the MIC of the agents in combination by the MIC of the agent alone. FICI ≤ 0.5 is synergistic, 0.5 < x ≤ 4 is additive, and >4 is antagonistic.

MSSE 81388 [3] = assay type: cell-based, Staphylococcus epidermidis
Experimental: as §2

P. aeruginosa PAO1 = assay type: cell-based, Pseudomonas aeruginosa; conditions: PAO1, 18 h
Experimental: (§3) The in vitro antibacterial activity of the UTBLPs was assessed against wild-type and clinically isolated bacterial strains. To obtain the MIC of the compounds, the microbroth dilution susceptibility assay was performed according to the Clinical and Laboratory Standards Institute (CLSI, Wayne, PA, USA) guidelines and as previously described. Briefly, the compounds at varying concentrations were incubated with bacterial inoculum (5 × 10^5 CFU/mL final concentration) at 37 °C for 18 h. Growth in the form of turbidity was confirmed using an EMax Plus microplate reader (Molecular Devices, San Jose, CA, USA) at 590 nm.

A. baumannii AB027 [4] = test: microbe, parasite or virus in culture; assay type: cell-based, Acinetobacter baumannii; conditions: AB027, 18 h
In short: as §1

A. baumannii AB92247 = test: microbe, parasite or virus in culture; assay type: cell-based, Acinetobacter baumannii; conditions: AB92247, 18 h
In short: as §1

E. faecium ATCC 27270 = assay type: cell-based, Enterococcus faecium; conditions: ATCC 27270, 18 h
Experimental: as §3

E. coli ATCC 25922 = assay type: cell-based, Escherichia coli; conditions: ATCC 25922, 18 h
Experimental: as §3

MRSA ATCC 33592 = assay type: cell-based, Staphylococcus aureus
Experimental: as §2

S. aureus ATCC 29213 = assay type: cell-based, Staphylococcus aureus
Experimental: as §2

E. cloacae 118564 [5] = assay type: cell-based, Enterobacter cloacae; conditions: for MICUTBLP: UTBLP alone
Experimental: as §2

K. pneumoniae 113250 [6] = assay type: cell-based, Klebsiella pneumoniae; conditions: for MICUTBLP: UTBLP alone
Experimental: as §2

K. pneumoniae 113250 [7] = test: microbe, parasite or virus in culture; assay type: cell-based, Klebsiella pneumoniae; conditions: 113250, 18 h
In short: as §1

E. faecalis ATCC 29212 = assay type: cell-based, Enterococcus faecalis
Experimental: as §2

MRSE 61589 [8] = assay type: cell-based, Staphylococcus epidermidis; conditions: 61589, 18 h
Experimental: as §3

MSSE 81388 [9] = assay type: cell-based, Staphylococcus epidermidis; conditions: 18 h
Experimental: as §3

A. baumannii ATCC 17978 [10] = assay type: cell-based, Acinetobacter baumannii; conditions: ATCC 17978, 18 h
Experimental: as §3

A. baumannii 92247 = assay type: cell-based, Acinetobacter baumannii; conditions: for MICUTBLP: UTBLP alone
Experimental: as §2

A. baumannii AB027 [11] = assay type: cell-based, Acinetobacter baumannii; conditions: for MICUTBLP: UTBLP alone
Experimental: as §2

A. baumannii ATCC 17978 [12] = assay type: cell-based, Acinetobacter baumannii; conditions: for MICUTBLP: UTBLP alone
Experimental: as §2

[13] = UTBLP alone, plate with chloramphenicol
[14] = UTBLP in combination with chloramphenicol
[15] = chloramphenicol in combination with the UTBLP
[16] = UTBLP in combination with novobiocin
[17] = UTBLP in combination with rifampicin
[18] = novobiocin in combination with the UTBLP
[19] = rifampicin in combination with the UTBLP

- MIC (E. cloacae 118564 [1]): > 128 µg/mL
- MICUTBLP (MRSE 61589 [2]; [13]): > 128 µg/mL
- MICUTBLP [MICcombo] (MRSE 61589 [2]; [14]): 0.25 µg/mL
- MICchloramphenicol [MICcombo] (MRSE 61589 [2]; [15]): 16 µg/mL
- MICUTBLP (MSSE 81388 [3]; [13]): > 128 µg/mL
- MICUTBLP [MICcombo] (MSSE 81388 [3]; [14]): 0.25 µg/mL
- MICchloramphenicol [MICcombo] (MSSE 81388 [3]; [15]): 8 µg/mL
- MIC (P. aeruginosa PAO1): >128 µg/mL
- MIC (A. baumannii AB027 [4]): > 128 µg/mL
- MIC (A. baumannii AB92247): > 128 µg/mL
- MIC (E. faecium ATCC 27270): >128 µg/mL
- MIC (E. coli ATCC 25922): >128 µg/mL
- MICUTBLP (MRSA ATCC 33592; [13]): > 128 µg/mL
- MICUTBLP [MICcombo] (MRSA ATCC 33592; [14]): 0.25 µg/mL
- MICchloramphenicol [MICcombo] (MRSA ATCC 33592; [15]): 64 µg/mL
- MICUTBLP (S. aureus ATCC 29213; [13]): > 128 µg/mL
- MICUTBLP [MICcombo] (S. aureus ATCC 29213; [14]): 0.25 µg/mL
- MICchloramphenicol [MICcombo] (S. aureus ATCC 29213; [15]): 16 µg/mL
- MICUTBLP (E. cloacae 118564 [5]; plate with novobiocin): > 128 µg/mL
- MICUTBLP (E. cloacae 118564 [5]; plate with rifampicin): > 128 µg/mL
- MICUTBLP [MICcombo] (E. cloacae 118564 [5]; [16]): 16 µg/mL
- MICUTBLP [MICcombo] (E. cloacae 118564 [5]; [17]): 8 µg/mL
- MICantibiotic [MICcombo] (E. cloacae 118564 [5]; [18]): 16 µg/mL
- MICantibiotic [MICcombo] (E. cloacae 118564 [5]; [19]): 2 µg/mL
- MICUTBLP (K. pneumoniae 113250 [6]; plate with novobiocin): > 128 µg/mL
- MICUTBLP (K. pneumoniae 113250 [6]; plate with rifampicin): > 128 µg/mL
- MICUTBLP [MICcombo] (K. pneumoniae 113250 [6]; [16]): 16 µg/mL
- MICUTBLP [MICcombo] (K. pneumoniae 113250 [6]; [17]): 16 µg/mL
- MICantibiotic [MICcombo] (K. pneumoniae 113250 [6]; [18]): 32 µg/mL
- MICantibiotic [MICcombo] (K. pneumoniae 113250 [6]; [19]): 4 µg/mL
- MIC (K. pneumoniae 113250 [7]): > 128 µg/mL
- MICUTBLP (E. faecalis ATCC 29212; [13]): > 128 µg/mL
- MICUTBLP [MICcombo] (E. faecalis ATCC 29212; [14]): 0.25 µg/mL
- MICchloramphenicol [MICcombo] (E. faecalis ATCC 29212; [15]): 8 µg/mL
- MIC (MRSE 61589 [8]): > 128 µg/mL
- MIC (MSSE 81388 [9]): > 128 µg/mL
- MIC (A. baumannii ATCC 17978 [10]): >128 µg/mL
- MICUTBLP (A. baumannii 92247; plate with novobiocin): > 128 µg/mL
- MICUTBLP (A. baumannii 92247; plate with rifampicin): > 128 µg/mL
- MICUTBLP [MICcombo] (A. baumannii 92247; [16]): 8 µg/mL
- MICUTBLP [MICcombo] (A. baumannii 92247; [17]): 16 µg/mL
- MICantibiotic [MICcombo] (A. baumannii 92247; [18]): 1 µg/mL
- MICantibiotic [MICcombo] (A. baumannii 92247; [19]): 0.25 µg/mL
- MICUTBLP (A. baumannii AB027 [11]; plate with novobiocin): > 128 µg/mL
- MICUTBLP (A. baumannii AB027 [11]; plate with rifampicin): > 128 µg/mL
- MICUTBLP [MICcombo] (A. baumannii AB027 [11]; [16]): 16 µg/mL
- MICUTBLP [MICcombo] (A. baumannii AB027 [11]; [17]): 4 µg/mL
- MICantibiotic [MICcombo] (A. baumannii AB027 [11]; [18]): 2 µg/mL
- MICantibiotic [MICcombo] (A. baumannii AB027 [11]; [19]): 0.5 µg/mL
- MICUTBLP (A. baumannii ATCC 17978 [12]; plate with chloramphenicol): > 128 µg/mL
- MICUTBLP (A. baumannii ATCC 17978 [12]; plate with niclosamide): > 128 µg/mL
- MICUTBLP (A. baumannii ATCC 17978 [12]; plate with novobiocin): > 128 µg/mL
- MICUTBLP (A. baumannii ATCC 17978 [12]; plate with rifampicin): > 128 µg/mL
- MICUTBLP [MICcombo] (A. baumannii ATCC 17978 [12]; [14]): 16 µg/mL
- MICUTBLP [MICcombo] (A. baumannii ATCC 17978 [12]; UTBLP in combination with niclosamide): 0.25 µg/mL
- MICUTBLP [MICcombo] (A. baumannii ATCC 17978 [12]; [16]): 8 µg/mL
- MICUTBLP [MICcombo] (A. baumannii ATCC 17978 [12]; [17]): 8 µg/mL
- MICantibiotic [MICcombo] (A. baumannii ATCC 17978 [12]; [15]): 64 µg/mL
- MICantibiotic [MICcombo] (A. baumannii ATCC 17978 [12]; niclosamide in combination with the UTBLP): 1024 µg/mL
- MICantibiotic [MICcombo] (A. baumannii ATCC 17978 [12]; [18]): 1 µg/mL
- MICantibiotic [MICcombo] (A. baumannii ATCC 17978 [12]; [19]): 0.5 µg/mL
Compound: CCCCCCCC(=O)N[C@@H](CCCCN(C)C)C(=O)NCCCN(CCCNC(=O)[C@H](CCCCN(C)C)NC(=O)CCCCCCC)CC(=O)N[C@@H](CCCCN(C)C)C(N)=O [UTBLP 3]
- Interpretation (MRSE 61589 [2]; UTBLP + chloramphenicol): Additive (0.5 < x ≤ 4 is additive)
- Interpretation (MSSE 81388 [3]; UTBLP + chloramphenicol): Additive (0.5 < x ≤ 4 is additive)
- Interpretation (MRSA ATCC 33592; UTBLP + chloramphenicol): Additive (0.5 < x ≤ 4 is additive)
- Interpretation (E. cloacae 118564 [5]; UTBLP + novobiocin): Synergy (FICI ≤ 0.5 is synergistic)
- Interpretation (E. cloacae 118564 [5]; UTBLP + rifampicin): Synergy (FICI ≤ 0.5 is synergistic)
- Interpretation (K. pneumoniae 113250 [6]; UTBLP + novobiocin): Synergy (FICI ≤ 0.5 is synergistic)
- Interpretation (K. pneumoniae 113250 [6]; UTBLP + rifampicin): Synergy (FICI ≤ 0.5 is synergistic)
- Interpretation (E. faecalis ATCC 29212; UTBLP + chloramphenicol): Additive (0.5 < x ≤ 4 is additive)
- Interpretation (A. baumannii 92247; UTBLP + novobiocin): Synergy (FICI ≤ 0.5 is synergistic)
- Interpretation (A. baumannii 92247; UTBLP + rifampicin): Synergy (FICI ≤ 0.5 is synergistic)
- Interpretation (A. baumannii AB027 [11]; UTBLP + novobiocin): Synergy (FICI ≤ 0.5 is synergistic)
- Interpretation (A. baumannii AB027 [11]; UTBLP + rifampicin): Additive (0.5 < x ≤ 4 is additive)
- Interpretation (A. baumannii ATCC 17978 [12]; UTBLP + chloramphenicol): Additive (0.5 < x ≤ 4 is additive)
- Interpretation (A. baumannii ATCC 17978 [12]; UTBLP + niclosamide): Additive (0.5 < x ≤ 4 is additive)
- Interpretation (A. baumannii ATCC 17978 [12]; UTBLP + novobiocin): Synergy (FICI ≤ 0.5 is synergistic)
- Interpretation (A. baumannii ATCC 17978 [12]; UTBLP + rifampicin): Synergy (FICI ≤ 0.5 is synergistic)
